Data: the supplement of paper PMC3974653
Structures can show the parent of a compound that is named as a salt.

Tested on: MTT (mouse pheochromocytoma)
Assay: IC50 of cell viability (ATP content)
Conditions: (24 or 48 h)
How it was run: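 MTT mouse pheochromocytoma cells were seeded into white 1536-well plates at 5 µl per well from a 200,000 cells/ml suspension in DMEM with 5% FBS and 1% horse serum, then cultured overnight at 37°C, 5% CO2. A pintool added 23 nl of library compound in DMSO at 8 concentrations (final 0.5 nM to 46 µM) for 24 or 48 hrs, and CellTiter-Glo ATP luminescence was read after 15 minutes. Signals were scaled so that positive-control wells equalled 100% and DMSO wells 0%. IC50 values were derived by fitting a four-parameter logistic curve.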

CCCCc1oc2ccc(N[S+](C)(=O)[O-])cc2c1C(=O)c1ccc(OCCCN(CCCC)CCCC)cc1 [Dronedarone]
IC50 of cell viability: > 46 µM

FC1=CC=C(C=C1)C(=O)CCCN2CC\C(=C/C2)N3C(=O)NC4=C3C=CC=C4 [Droperidol]
IC50 of cell viability: > 46 µM

NC(C(=O)O)C(O)c1ccc(O)c(O)c1 (configuration not stated) [Droxidopa]
IC50 of cell viability: > 46 µM

C[C@]12C=CC(=O)N[C@@H]1CC[C@@H]1C2CC[C@]2(C)C(C(=O)Nc3cc(C(F)(F)F)ccc3C(F)(F)F)CC[C@@H]12 (some centres not stated) [Dutasteride]
IC50 of cell viability: > 46 µM

CCCCOc1ccc(C(=O)CCN2CCCCC2)cc1 [Dyclonine hydrochloride]
IC50 of cell viability: > 46 µM

CC(=O)[C@@H]1CC[C@@H]2[C@@H]3\C=C/C4=C/C(=O)CC[C@@]4(C)[C@H]3CC[C@@]12C [Dydrogesterone]
IC50 of cell viability: > 46 µM

CC(C)c1cc2c(cc1[S+](=O)([O-])O)[C@@]1(C)CCC[C@@](C)(C(=O)O)[C@@H]1CC2 [ECABET SODIUM]
IC50 of cell viability: > 46 µM

CN1CCc2cc(Cl)c(O)cc2[C@H]2c3ccccc3CC[C@@H]21 [ECOPIPAMUM]
IC50 of cell viability: > 46 µM

O=C(O)CN(CCN(CC(=O)O)CC(=O)O)CC(=O)O [EDETATE CALCIUM DISODIUM]
IC50 of cell viability: > 46 µM

CC(O)CN(CCN(CC(C)O)CC(C)O)CC(C)O (configuration not stated) [EDETOLUM]
IC50 of cell viability: > 46 µM

CCC1(CC2=C(O1)C=CC=C2)\C3=N\CCN3 (configuration not stated) [EFAROXAN]
IC50 of cell viability: > 46 µM

O=C1Nc2ccc(Cl)cc2C(C#CC2CC2)(C(F)(F)F)O1 (configuration not stated) [EFAVIRENZ]
IC50 of cell viability: > 46 µM

CCc1cc([S+](=O)([O-])[O][Na])c2cc(C(C)C)cccc1-2 [EGUALEN SODIUM]
IC50 of cell viability: > 46 µM

CC/C=C\C/C=C\C/C=C\C/C=C\C/C=C\CCCC(=O)O [EICOSAPENTAENOIC ACID]
IC50 of cell viability: > 46 µM

CN1CCC[C@@H]1Cc1c[nH]c2ccc(CC[S+](=O)([O-])c3ccccc3)cc12 [ELETRIPTAN HYDROBROMIDE]
IC50 of cell viability: > 46 µM

O=c1oc2c(O)c(O)cc3c(=O)oc4c(O)c(O)cc1c4c23 [ELLAGIC ACID]
IC50 of cell viability: > 46 µM

c1cc2c(c(N3CCNCC3)c1)OCCO2 [ELTOPRAZINUM]
IC50 of cell viability: > 46 µM

CCOCCn1c(N2CCCN(C)CC2)nc2ccccc21 [EMEDASTINE DIFUMARATE]
IC50 of cell viability: > 46 µM

CCOC(=O)c1ccc(OCCN2C[C@H](O)[C@@H](O)[C@H](O)[C@H]2CO)cc1 [EMIGLITATE]
IC50 of cell viability: > 46 µM

Nc1nc(=O)n([C@@H]2CS[C@H](CO)O2)cc1F [EMTRICITABINE]
IC50 of cell viability: > 46 µM

Cl\C1=C(/Cl)C2(Cl)C3C4CC(C5OC45)C3C1(Cl)C2(Cl)Cl (configuration not stated) [ENDRIN]
IC50 of cell viability: > 46 µM

FC(F)OC(F)(F)C(F)Cl (configuration not stated) [ENFLURANE]
IC50 of cell viability: > 46 µM

CCCCCCCCCCCCCCCCCCCCCC(=O)Nc1ccn([C@@H]2O[C@H](CO)[C@@H](O)[C@@H]2O)c(=O)n1 [ENOCITABINE]
IC50 of cell viability: > 46 µM

CC1(C)[C@@H](O)CC[C@@]2(C)[C@H]1CC[C@]3(C)[C@@H]2C(=O)\C=C/4[C@@H]5C[C@](C)(CC[C@]5(C)CC[C@@]34C)C(O)=O [ENOXOLONE]
IC50 of cell viability: > 46 µM

CCN1CCN(CC1)C2=CC3=C(C=C2F)C(=O)C(=C/N3C4CC4)\C(O)=O [ENROFLOXACIN]
IC50 of cell viability: > 46 µM

C=C1C(n2cnc3c(O)nc(N)nc32)C[C@H](O)[C@H]1CO (some centres not stated) [ENTECAVIR]
IC50 of cell viability: > 46 µM

Cc1ccc(/C=C2/C(=O)C3(C)CCC2C3(C)C)cc1 (configuration not stated) [ENZACAMENE]
IC50 of cell viability: > 46 µM

O=C([O-])c1ccccc1-c1c2cc(Br)c(=O)c(Br)c-2oc2c(Br)c([O-])c(Br)cc12 [EOSINE YELLOWISH]
IC50 of cell viability: > 46 µM

CCc1ccc(C(=O)C(C)CN2CCCCC2)cc1 (configuration not stated) [EPERISONE HYDROCHLORIDE]
IC50 of cell viability: > 46 µM

CNC(C)[C@@H](O)c1ccccc1.Cl (stereo partly drawn) [EPHEDRINE (1R,2S) HYDROCHLORIDE]
IC50 of cell viability: > 46 µM

Oc1cc(O)c2c(c1)OC(c1ccc(O)c(O)c1)C(O)C2 (configuration not stated) [EPICATECHIN]
IC50 of cell viability: > 46 µM

CC(C)CCC[C@@H](C)[C@H]1CC[C@H]2[C@@H]3CC[C@@H]4C[C@H](O)CC[C@]4(C)[C@H]3CC[C@]12C [EPIDIHYDROCHOLESTERIN]
IC50 of cell viability: > 46 µM

NC1=NCC2c3ccccc3Cc3ccccc3N12 (configuration not stated) [EPINASTINE HYDROCHLORIDE]
IC50 of cell viability: > 46 µM

CNC[C@H](O)c1ccc(O)c(O)c1 [EPINEPHRINE]
IC50 of cell viability: > 46 µM

CCCCC[C@H](O)/C=C/[C@@H]1[C@H]2C/C(=C/CCCC(=O)[O-])O[C@H]2C[C@H]1O [EPOPROSTENOL SODIUM]
IC50 of cell viability: > 46 µM

C/C(=C\c1csc(C)n1)[C@@H]1C[C@@H]2O[C@]2(C)CCC[C@H](C)[C@H](O)[C@@H](C)C(=O)C(C)(C)[C@@H](O)CC(=O)O1 [EPOTHILONE B]
IC50 of cell viability: > 46 µM

CCOC(CN1CCN(CC(C)C(=O)c2ccccc2)CC1)c1ccccc1 (configuration not stated) [EPRAZINONE HYDROCHLORIDE]
IC50 of cell viability: > 46 µM

N=C(N)NCCCC[C@@H]1NC(=O)CCSSC[C@@H](C(N)=O)NC(=O)[C@@H]2CCCN2C(=O)[C@H](Cc2c[nH]c3ccccc23)NC(=O)[C@H](CC(=O)O)NC(=O)CNC1=O [EPTIFIBATIDE]
IC50 of cell viability: > 46 µM

C=C1CCC(O)C/C1=C/C=C1\CCC[C@]2(C)[C@@H]([C@H](C)/C=C/[C@H](C)C(C)C)CC[C@@H]12 (some centres not stated) [ERGOCALCIFEROL]
IC50 of cell viability: > 46 µM

CC(CO)NC(=O)C1C=C2c3cccc4[nH]cc(c34)CC2N(C)C1 (configuration not stated) [ERGONOVINE]
IC50 of cell viability: > 46 µM

CCC(=O)O[C@H]1C(O[C@@H]2C(C)[C@H](O[C@H]3C[C@@](C)(OC)C(O)C(C)O3)C(C)C(=O)OC(CC)[C@@](C)(O)C(O)[C@H](C)C(=O)C(C)C[C@]2(C)O)OC(C)CC1N(C)C.CCCCCCCCCCCCO[S+](=O)([O-])O (some centres not stated) [ERYTHROMYCIN ESTOLATE]
IC50 of cell viability: > 46 µM

CCC1OC(=O)C(C)[C@@H](O[C@H]2C[C@@](C)(OC)C(O)C(C)O2)C(C)[C@@H](O[C@@H]2OC(C)CC(N(C)C)C2O)[C@@](C)(O)CC(C)C(=O)[C@@H](C)C(O)[C@]1(C)O (some centres not stated) [ERYTHROMYCIN]
IC50 of cell viability: > 46 µM

CN(C)CCC[C@@]1(c2ccc(F)cc2)OCc2cc(C#N)ccc21.O=C(O)C(=O)O [ESCITALOPRAM OXALATE]
IC50 of cell viability: > 46 µM

CNC1(c2ccccc2Cl)CCCCC1=O (configuration not stated) [ESKETAMINUM]
IC50 of cell viability: > 46 µM

CC(=O)SCC(CC(=O)c1ccc(C)cc1)C(=O)O (configuration not stated) [ESONARIMOD]
IC50 of cell viability: > 46 µM

ClC1=CC=C2[N]3C=NN=C3C\N=C(\C4=CC=CC=C4)C2=C1 [ESTAZOLAM]
IC50 of cell viability: > 46 µM

CC(=O)OC1CCC2C3CCc4cc(O)ccc4C3CCC12C (configuration not stated) [ESTRADIOL ACETATE]
IC50 of cell viability: > 46 µM

C[C@]12CC[C@@H]3c4ccc(OC(=O)c5ccccc5)cc4CC[C@H]3[C@@H]1CC[C@@H]2O [ESTRADIOL BENZOATE]
IC50 of cell viability: > 46 µM

C[C@]12CC[C@@H]3c4ccc(O)cc4CC[C@H]3[C@@H]1CCC2OC(=O)CCC1CCCC1 (some centres not stated) [ESTRADIOL CYPIONATE]
IC50 of cell viability: > 46 µM

CCCCC(=O)OC1CCC2C3CCc4cc(O)ccc4C3CC[C@]12C (some centres not stated) [ESTRADIOL VALERATE]
IC50 of cell viability: > 46 µM

C[C@]12CC[C@@H]3c4ccc(OC(=O)N(CCCl)CCCl)cc4CC[C@@H]3[C@H]1CC[C@@H]2OP(=O)(O)O [ESTRAMUSTINE PHOSPHATE]
IC50 of cell viability: > 46 µM

CCCCCCCCCCCCCCCCCCOC[C@H](COP(=O)([O-])OCC[N+](C)(C)C)OC [ET-18-OCH3]
IC50 of cell viability: > 46 µM

CCN(CC)CCOc1ccccc1C(=O)CCc1ccccc1 [ETAFENONE HYDROCHLORIDE]
IC50 of cell viability: > 46 µM

O=C(Cn1ccnc1[N+](=O)[O-])NCCO [ETANIDAZOLE]
IC50 of cell viability: > 46 µM

CCC1(c2ccccc2)C(=O)N(COC)C(=O)N(COC)C1=O [ETEROBARBUM]
IC50 of cell viability: > 46 µM

C#C[C@]1(O)CC[C@H]2[C@@H]3CCc4cc(O)ccc4[C@H]3CC[C@@]21C [ETHINYL ESTRADIOL]
IC50 of cell viability: > 46 µM

CC\12CCC(=O)\C=C1CCC3C2CCC4(C)C3CCC4(O)C#C (configuration not stated) [ETHISTERONE]
IC50 of cell viability: > 46 µM

C#C[C@]1(O)CC[C@H]2[C@@H]3CCC4=CC(=O)CCC4(C)[C@H]3CCC21C (some centres not stated) [ETHISTERONUM]
IC50 of cell viability: > 46 µM

CCOc1ccc2nc([S+](N)(=O)[O-])sc2c1 [ETHOXZOLAMIDE]
IC50 of cell viability: > 46 µM

CCCCC/C=C/C/C=C/CCCCCCCC(=O)OCC [ETHYL LINOLEATE]
IC50 of cell viability: > 46 µM

CCOC(=O)c1cccnc1 [ETHYL NICOTINATE]
IC50 of cell viability: > 46 µM

CCOC(=O)c1ccccc1O [ETHYL SALICYLATE]
IC50 of cell viability: > 46 µM
